Among the data in patent US9498483B2, “2,3,5-trisubstituted thiophene compounds and uses thereof” (priority 2010, dated 2016) are IC50 values, retold here.

Bounds are passed on as bounds.

In test [1] the test system is HCV replicon I389luc-ubi-neo/NS3-3′/ET in ET (Huh-lucubineo-ET) cells. Description: Replicon assay (Biological Example 2), luciferase readout. Format: cell-based. The conditions noted are these: Hepatitis C virus. The essentials: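 EC50 values come from Hill fits of % inhibition of replicon-driven firefly luciferase, relative to no-compound wells. Compounds were serially diluted (10 points, 3-fold, 0.1 nM–50 μM final, 0.5% DMSO) onto ET replicon cells and read after 48 h.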
For orientation: In antiviral work, replicon cells carry a viral genome segment that copies itself.

A further test addresses T1, HCV polymerase (Hepatitis C virus genotype 1b, UniProt Q9WMX2).
T1 construct: (His)6 (C); made in house; host or cells: XL-1 cells (E. coli, by own knowledge)
Description: Polymerase assay of Biological Example 1 (IC50 values of Table 3). Format: biochemical. The conditions noted are these: IC50 values of Table 3, polymerase assay of Biological Example 1; read-out: NS5B-enzyme3.

Setting [2] is: ET cells, luciferase activity 48 hours after compound.

Take `CC(C)(C)C#Cc1cc(N2C(=O)C(C)(C)OC[C@H]2C2CCCCC2)c(C(=O)O)s1` [Compound 290, 3-((R)-5-Cyclohexyl-2,2-dimethyl-3-oxomorpholin-4-yl)-5-(3,3-dimethyl-but-1-ynyl)-thiophene-2-carboxylic acid]: the IC50 in test [1] (setting [2]) is not above 100 nM; on HCV polymerase, 2 nM.

`CC(C)(C)OC(=O)N[C@H]1CCCN(c2ccc(S(=O)(=O)N3CC(=O)N(c4cc(-c5ccccc5)sc4C(=O)O)[C@H](C4CCCCC4)C3)cn2)C1` [Compound 159, 3-[(R)-4-((S)-3-tert-Butoxycarbonyl-amino-3,4,5,6-tetrahydro-2H-[1,2′]bipyridinyl-5′-sulfonyl)-2-cyclohexyl-6-oxo-piperazin-1-yl]-5-phenyl-thiophene-2-carboxylic acid]: the IC50 in test [1] (between 100 nM and 5.0 uM) is 100 to 5000 nM; at HCV polymerase, 3 nM.

`C[C@H]1CN(c2ccc(S(=O)(=O)N3CC(=O)N(c4cc(-c5ccccc5)sc4C(=O)O)[C@H](C4CCCCC4)C3)cn2)CCN1` [Compound 145, 3-{(R)-2-Cyclohexyl-4-[6-((S)-3-methyl-piperazin-1-yl)-pyridine-3-sulfonyl]-6-oxo-piperazin-1-yl}-5-phenyl-thiophene-2-carboxylic acid]: the IC50 in test [1] (setting [2]) was not above 100 nM; on HCV polymerase, 1 nM.

Turning to `CC(C)(C)C#Cc1cc(N2C(=O)[C@@](C)(CCO)OC[C@H]2C2CCCCC2)c(C(=O)O)s1` [Compound 323, 3-[(2R,5R)-5-Cyclohexyl-2-(2-hydroxy-ethyl)-2-methyl-3-oxo-morpholin-4-yl]-5-(3,3-dimethyl-but-1-ynyl)-thiophene-2-carboxylic acid], the IC50 in test [1] (setting [2]) is not above 100 nM; on HCV polymerase, 3 nM.

On to `O=C(O)c1sc(-c2ccccc2F)cc1N1C(=O)CCCC1C1CCCCC1` (centres unmarked) [Compound 67, 3-(2-Cyclohexyl-6-oxo-piperidin-1-yl)-5-(2-fluoro-phenyl)-thiophene-2-carboxylic acid], for which the IC50 in test [1] (between 100 nM and 5.0 uM) is 100 to 5000 nM; on HCV polymerase it was 183 nM.

In the case of `C[C@H]1OCC(=O)N(c2cc(C#CC(C)(C)C)sc2C(=O)O)[C@@H]1C1CCCCC1` [Compound 291, 3-((2R,3R)-3-Cyclohexyl-2-methyl-5-oxo-morpholin-4-yl)-5-(3,3-dimethyl-but-1-ynyl)-thiophene-2-carboxylic acid], the figures for the IC50 (in test [1] (setting [2]); on HCV polymerase) were not above 100 nM and 8 nM, respectively.

Regarding `O=C(O)c1sc(-c2ccccc2)cc1N1C(=O)CN(S(=O)(=O)c2ccc(-c3ccc(F)cc3F)nc2)C[C@H]1C1CCCCC1` [Compound 205, 3-{(R)-2-Cyclohexyl-4-[6-(2,4-difluoro-phenyl)-pyridine-3-sulfonyl]-6-oxo-piperazin-1-yl}-5-phenyl-thiophene-2-carboxylic acid], the IC50 was 100 to 5000 nM in test [1] (between 100 nM and 5.0 uM); 4 nM at HCV polymerase.

As to `CC(C)(C)C#Cc1cc(N2C(=O)CN(S(=O)(=O)c3cccc(C#N)c3)C[C@H]2C2CCCCC2)c(C(=O)O)s1` [Compound 259, 3-[(R)-4-(3-Cyano-benzenesulfonyl)-2-cyclohexyl-6-oxo-piperazin-1-yl]-5-(3,3-dimethyl-but-1-ynyl)-thiophene-2-carboxylic acid], the IC50 is 100 to 5000 nM in test [1] (between 100 nM and 5.0 uM); 7 nM on HCV polymerase.

Take `O=C(O)c1sc(-c2ccccc2)cc1N1C(=O)CN(S(=O)(=O)c2ccc(N3CCSCC3)nc2)CC1C1CCCCC1` (centres unmarked) [Compound 79, 3-[2-Cyclohexyl-6-oxo-4-(6-thiomorpholin-4-yl-pyridine-3-sulfonyl)-piperazin-1-yl]-5-phenyl-thiophene-2-carboxylic acid]: the IC50 in test [1] (setting [2]) was not above 100 nM; at HCV polymerase, 4 nM.

As to `Cc1nn(C)cc1S(=O)(=O)N1CC(=O)N(c2cc(C#CC(C)(C)C)sc2C(=O)O)[C@H](C2CCCCC2)C1` [Compound 260, 3-[(R)-2-Cyclohexyl-4-(1,3-dimethyl-1H-pyrazole-4-sulfonyl)-6-oxo-piperazin-1-yl]-5-(3,3-dimethyl-but-1-ynyl)-thiophene-2-carboxylic acid], the IC50 in test [1] (between 100 nM and 5.0 uM) is 100 to 5000 nM; at HCV polymerase it was 8 nM.
